Test results from patent US4461724A, “Peptide compounds, a process for manufacturing them, pharmaceutical compositions containing them, and methods for treating ulcer and thrombus with them” (Nippon Zoki Pharmaceutical Co., Ltd., priority 1981, dated 1984).
Square brackets hold non-standard residues; d marks the D form. Peptide text beside a SMILES is read from it. pGlu = O=C1CC[C@@H](C(=O)O)N1

Columns and labels:
[1] = test system: thrombus on silk thread in extracorporeal shunt of rats; experiment: Antithrombotic effect (II): extracorporeal shunt with silk thread, thrombus wet weight; format: in vivo, Wister strain male rats; conditions: 20 minute circulation; for Thrombosis wet weight: mean ± S.E., control 38.1 ± 3.4
Experimental: The present pharmacological test was conducted according to the method by T. Umetsu et al. [Thrombosis and Haemostasis, 39, 74-83 (1978)]. Groups each consisting of 10 Wister strain male rats were anesthetized by intraperitoneal administration of 50 mg/kg of sodium pentobarbital. An extracorporeal shunt prepared by connecting cannula polyethylene tubes to both ends of a polyethylene tube into which a silk thread had been inserted was filled with heparin, the both ends were then inserted into the dissected and exposed left jugular vein and right carotid artery. Thereafter, blood circulation was started. The drug to be tested was intravenously administered one minute before the start of blood circulation. Aspirin was orally administered as a comparative drug. After 20 minute blood circulation, the wet weight of the thrombus coated to the silk thread was weighed, and the inhibition rate was calculated.

[2] = test system: cortisone-induced ulcer in rats; experiment: (D) Cortisone-induced ulcer inhibiting effect; format: in vivo; conditions: starved rats, cortisone acetate 20 mg/kg s.c. and drug once a day for 4 days
Experimental: (§1) The peptide compound of this invention (Compound 25) and cimetidine and atropine both employed as the comparative drugs were intravenously administered.
According to the method by Robert et al. [Robert, A & Nezamis, J. E., Proc. Soc. Exptl. Biol. Med., 99, 443 (1958)], rats were starved, and 20 mg/kg of cortisone acetate was subcutaneously administered once a day for 4 days to induce ulcer. The drug to be tested was also administered simultaneously with the cortisone acetate once a day for 4 days.

[3] = test system: cysteamine-induced duodenal ulcer in rats; experiment: (E) Cysteamine-induced duodenal ulcer inhibiting effect; format: in vivo; conditions: drug once before cysteamine hydrochloride 400 mg/kg
Experimental: as §1
According to the method by Robert at al. [Robert, H. et al., Digestion, 11, 199 (1974)], 400 mg/kg of cysteamine hydrochloride was administered to rats to induce duodenal ulcer. The drug to be tested was administered once before the administration of the cysteamine.

[4] = test system: restraint and water immersion stress ulcer in rats; experiment: (A) Restraint and water immersion stress ulcer inhibiting effect; format: in vivo; conditions: stress 25° C., 4 hours, drug once before stress
Experimental: as §1
According to the method by Takagi et al. [Takagi, K. et al., Chem. Pharm. Bull., 12, 465 (1964)], the effect on the ulcer in rats induced by stress due to restraint and immersing in water in wire cages (25° C., 4 hours) was examined. The drugs to be tested were administered once before loading the stress.

[5] = test system: aspirin-induced ulcer in rats; experiment: (B) Aspirin-induced ulcer inhibiting effect; format: in vivo; conditions: drug once before oral aspirin 200 mg/kg
Experimental: 4. […] According to the method by Brodie et al. [Brodie, D. A. & Chase, B. J., Gastroenterology, 53, 604 (1967)], the drug to be tested was orally administered to rats once before the oral administration of 200 mg/kg of aspirin.

[6] = test system: histamine-induced ulcer in rats; experiment: (C) Histamine-induced ulcer inhibiting effect (ID50); format: in vivo; conditions: drug once before histamine 300 mg/kg
Experimental: 4. […] According to the method by Bucher et al. [ Bucher, F. et al., Beitr. Path. Anat., 81, 391 (1928)], the drug to be tested was intraperitoneally administered to rats once before the oral administration of 300 mg/kg of histamine.

[7] = test system: histamine-induced ulcer in rats; experiment: Histamine-induced ulcer inhibiting effect (Table 1); format: in vivo, Wister strain male rats; conditions: histamine dihydrochloride 300 mg/kg i.p., 4 hours; for Ulcer coefficient (total surface area of ulcer lesion): mean ± S.E., control 28.4 ± 3.2
Experimental: Groups each consisting of 10 Wister strain male rats (120-130 g) were starved for 24 hours, and the drug to be tested were intravenously administered (i.v.). Immediately thereafter, according to the method by Bucher et al. [Bucher, F. et al., Beitr. Path. Anat. 81, 391 (1928)], 300 mg/kg of histamine dihydrochloride was administered intraperitoneally (i.p.). Four hours later, each animal was decapitated to bleed, and the stomach was removed. 6 ml of physiological saline was infused into the removed stomach, which was then dipped in 10% formalin for 10 minutes. Then, the stomach was incised along the greater curvature. The ulcer appeared on the stomach mucous membrane was observed on a stereoscopic microscope to measure the surface area of the ulcer lesion, and the total area was designated as the ulcer coefficient.

[8] = test system: pylorus ligation ulcer in rats; experiment: Pylorus ligation ulcer inhibiting effect; format: in vivo, Wister strain male rats; conditions: 1 mg/kg i.p., 18 hours after pylorus ligation, mean ± S.E., control 4.5 ± 0.3
Experimental: Groups each consisting of 10 Wister strain male rats were starved for 24 hours, and the pylorus was ligatured under etherized conditions. The peptide compound of this invention (Compound 25) was intraperitoneally administered. Eighteen hours later, the stomach was removed and cut open. The ulcer appeared on the rumen was evaluated using 6-ranked ulcer index according to the method by Narumi et al. [A. Narumi, et al., J. Takeda Res. Lab., 29, 85 (1970)].

[9] = test system: acetic acid-induced ulcer in rats; experiment: Acetic acid-induced (chronic) ulcer inhibiting effect; format: in vivo; conditions: once a day for 10 days
Experimental: The effect of the peptide compound of this invention on chronic ulcer was examined according to the method by Takagi et al. [Takagi, K. et al., Japan J. Pharmacol., 19, 418 (1970)]. That is, 0.025 ml of 30% acetic acid was injected to the stomach serous membrane in rats, and for 10 days thereafter, the peptide compound of this invention (Compound 25) was intravenously administered once a day. Gefarnate and secretin both employed as the comparative drugs were similarly intramuscularly administered (i.m.).

[10] = test system: Collagen Induced Hemagglutination; experiment: Antithrombotic effect (I): collagen induced hemagglutination in plasma of dosed rats; format: in vivo, Wister strain male rats; conditions: collagen as coagulant; for Transmittance: mean ± S.E., control 52.5 ± 7.1
Experimental: (§2) Groups each consisting of 10 Wister strain male rats (120-160 g) were administered with the drug to be tested through the tail vein, and 5 minutes later, blood was taken under etherized conditions at a ratio to 3.8% aqueous sodium citrate solution of 1/10. This was centrifugally separated into platelet rich plasma (PRP) and platelet poor plasma (PPP). Using ADP or collagen as the coagulant, the reaction was effected at 37° C. The transmittance of the plasma with the coagulant and drug to be tested was measured using PRP and PPP as the standards, compared with the control, and the percent inhibition was calculated. As the comparative drug, ticlopidine was orally administered.

[11] = test system: ADP Induced Hemagglutination; experiment: Antithrombotic effect (I): ADP induced hemagglutination in plasma of dosed rats; format: in vivo, Wister strain male rats; conditions: ADP as coagulant; for Transmittance: mean ± S.E., control 62.9 ± 6.3
Experimental: as §2

[12] = 1 mg/kg i.v. one minute before circulation
[13] = 10 mg/kg i.v. one minute before circulation
[14] = 10 mg/kg via tail vein, blood taken 5 minutes later

CC(=O)Oc1ccccc1C(=O)O [Aspirin]
Thrombosis wet weight ([1]; 100 mg/kg orally): 22.3 ± 3.2 mg | inhibition at 100 mg/kg ([1]; Rattus norvegicus, po, 20 min, 100 mg/kg orally, read-out: Inhibition rate (%)): 41.5%

CN1[C@@H]2CC[C@H]1C[C@@H](OC(=O)C(CO)c1ccccc1)C2 (stereo partly drawn) [Atropine, atropine]
ID50 (D) cortisone-induced ulcer [2]: 0.25 mg/kg, i.v. | ID50 (E) cysteamine-induced duodenal ulcer [3]: 0.35 mg/kg, i.v. | ID50 (A) restraint and water immersion stress ulcer [4]: 0.4 mg/kg, i.v. | ID50 (B) aspirin-induced ulcer [5]: 0.52 mg/kg, i.v. | ID50 (C) histamine-induced ulcer [6]: 0.35 mg/kg, i.v.

CN/C(=N/CCSCc1nc[nH]c1C)NC#N [Cimetidine, cimetidine]
Ulcer coefficient (total surface area of ulcer lesion) ([7]; 25 mg/kg i.v.): 10.9 ± 1.9 | inhibition at 25 mg/kg ([7]; Rattus norvegicus, 25 mg/kg i.v., read-out: Inhibition rate (%)): 61.6% | ID50 (D) cortisone-induced ulcer [2]: 28.0 mg/kg, i.v. | ID50 (E) cysteamine-induced duodenal ulcer [3]: 26.0 mg/kg, i.v. | ID50 (A) restraint and water immersion stress ulcer [4]: 37.0 mg/kg, i.v. | ID50 (B) aspirin-induced ulcer [5]: 39.0 mg/kg, i.v. | ID50 (C) histamine-induced ulcer [6]: 17.0 mg/kg, i.v.

NCCCC[C@H](NC(=O)[C@H](Cc1c[nH]cn1)NC(=O)[C@H](CO)NC(=O)CN)C(=O)O [Compound 25, Gly-Ser-His-Lys.CH3 COOH.H2 O] (H-GSHK-OH)
Ulcer index (6-ranked) [8]: 3.1 ± 0.5 | Inhibition rate (%) ([7]; 20 mg/kg i.v.): 79.9% | Ulcer coefficient (total surface area of ulcer lesion) ([7]; 20 mg/kg i.v.): 5.7 ± 2.6 | ID50 (D) cortisone-induced ulcer [2]: 1.85 mg/kg, i.v. | ID50 (E) cysteamine-induced duodenal ulcer [3]: 5.0 mg/kg, i.v. | ID50 acetic acid-induced ulcer ([9]; intravenous): 1.0 mg/kg, i.v. | ID50 (A) restraint and water immersion stress ulcer [4]: 4.2 mg/kg, i.v. | ID50 (B) aspirin-induced ulcer [5]: 5.0 mg/kg, i.v. | Transmittance ([10]; 10.0 mg/kg via tail vein, 10 mg/kg): 14.8 ± 4.9 | Inhibition rate (%) ([10]; 10 mg/kg): 71.8% | ID50 (C) histamine-induced ulcer [6]: 6.0 mg/kg, i.v. | Inhibition rate (%) [1, 12]: 27.3% | Thrombosis wet weight [1, 12]: 27.7 ± 4.0 mg | Inhibition rate (%) [1, 13]: 44.1% | Thrombosis wet weight [1, 13]: 21.3 ± 3.3 mg

NCCCC[C@H](NC(=O)[C@H](Cc1c[nH]cn1)NC(=O)[C@H](CO)NC(=O)[C@@H]1CCC(=O)N1)C(=O)O [Compound 28, (pyr)Glu-Ser-His-Lys] ([pGlu]SHK-OH)
Inhibition rate (%) ([7]; 20 mg/kg i.v.): 57.0% | Ulcer coefficient (total surface area of ulcer lesion) ([7]; 20 mg/kg i.v.): 12.2 ± 2.6 | Inhibition rate (%) [11, 14]: 57.9% | Transmittance [11, 14]: 26.5 ± 7.2

CC(C)=CCC/C(C)=C/CC/C(C)=C/CCC(=O)OC/C=C(\C)CCC=C(C)C [Gefarnate]
ID50 acetic acid-induced ulcer ([9]; intramuscular): 250 mg/kg, i.m.

Clc1ccccc1CN1CCc2sccc2C1 [Thichlopidine, ticlopidine]
Transmittance ([11]; 100 mg/kg orally): 41.6 ± 10.4 | inhibition at 100 mg/kg ([11]; Rattus norvegicus, po, 100 mg/kg orally, read-out: Inhibition Rate (%)): 33.9% | inhibition at 100 mg/kg ([10]; Rattus norvegicus, po, 100 mg/kg orally, read-out: Inhibition rate (%)): 34.1% | Transmittance ([10]; 100 mg/kg orally): 34.6 ± 10.8

secretin
ID50 acetic acid-induced ulcer ([9]; intramuscular): > 100 U/kg, i.m.
